{"source": "patent US6479670B1", "about": "“Selective retinoid acid receptor agonists” (Hoffmann-La Roche Inc., priority 1999, dated 2002)", "tested_on": "rat model of elastase-induced emphysema", "assay": "Repair of alveoli in elastase-induced emphysema (rat model), morphometric analysis", "format": "in vivo, male Sprague Dawley rats", "details": "elastase-induced emphysema in rats", "experimental": "RAR selective agonists were evaluated for its effects on alveolar repair in the rat model of elastase-induced emphysema in rats (Massaro et al. Nature (Medicine, 1997, 3, 675)). Animals were divided into treatment groups of approximately eight. Lung inflammation and alveolar damage was induced in male Sprague Dawley rats by a single instillation of pancreatic elastase(porcine derived, Calbiochem) 2 U/gram body mass. Three weeks post injury all-trans retinoic acid or RAR agonist was dissolved in dimethylsulfoxide (20 mg/ml) and stored at −20 C. Fresh working stocks were prepared fresh daily by dilution in PBS to a final concentration of 2 mg/ml. Animals treated with all-trans retinoic acid (0.5 mg/Kg ip) were dosed once daily by intraperitoneal injection, starting 21 days post injury. Control groups were challenged with elastase and 21 days later treated with Vehicle (DMSO/PBS) for 14 days. Animals were sacrificed 24 hours after the last dose of by exsanguination under deep anesthesia.\nThe lungs were inflated with 10% neutral buffered formalin by intratracheal instillation at a constant rate (1 ml/gram body mass/min). The lung was excised and immersed in fixative for 24 hours prior to processing. Standard methods were used to prepare 5 um paraffin sections. Sections were stained with Hematoxylin and Eosin (H%E). Computerized Morphometric analysis was performed to determine the average alveolar size and alveolar number (Table 1).", "data": [{"smiles": "COCC1(C)CCCOc2cc(C#Cc3ccc(C(=O)O)cc3)ccc21", "note": "(racemic) [A, 4-(5-methoxymethyl-5-methyl-2,3,4,5-tetrahydro-1-benzo[b]oxepin-8-yl-ethynyl)-benzoic acid]", "values": [{"measurement": "% repair area", "setting": "0.1 mg/kg p.o.", "value": 45.2, "unit": "%"}, {"measurement": "% repair area", "setting": "0.3 mg/kg p.o.", "value": 51.3, "unit": "%"}, {"measurement": "% repair area", "setting": "0.5 mg/kg i.p.", "value": 58, "unit": "%"}]}]}
